This is an account of results in ChEMBL document CHEMBL1795325, “Studying synergism of methyl linked cyclohexyl thiophenes with triazole: synthesis and their cdk5/p25 inhibition activity” (Eur J Med Chem, 2011).

In the test the target is Cyclin-dependent kinase 5/CDK5 activator 1 (Homo sapiens, UniProt Q00535). The class given is protein-complex assay.
Sequence of Cyclin-dependent kinase 5/CDK5 activator 1 (Q00535 whole entry): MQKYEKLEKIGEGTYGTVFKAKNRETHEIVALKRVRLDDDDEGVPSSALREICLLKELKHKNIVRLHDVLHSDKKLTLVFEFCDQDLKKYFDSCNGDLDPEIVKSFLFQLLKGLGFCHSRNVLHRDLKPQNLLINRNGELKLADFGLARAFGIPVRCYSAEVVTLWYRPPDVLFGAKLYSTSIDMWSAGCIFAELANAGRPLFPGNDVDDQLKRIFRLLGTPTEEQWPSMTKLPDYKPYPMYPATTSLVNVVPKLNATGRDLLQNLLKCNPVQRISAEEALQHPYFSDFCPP
Sequence of Cyclin-dependent kinase 5/CDK5 activator 1 (Q15078 whole entry, further chain): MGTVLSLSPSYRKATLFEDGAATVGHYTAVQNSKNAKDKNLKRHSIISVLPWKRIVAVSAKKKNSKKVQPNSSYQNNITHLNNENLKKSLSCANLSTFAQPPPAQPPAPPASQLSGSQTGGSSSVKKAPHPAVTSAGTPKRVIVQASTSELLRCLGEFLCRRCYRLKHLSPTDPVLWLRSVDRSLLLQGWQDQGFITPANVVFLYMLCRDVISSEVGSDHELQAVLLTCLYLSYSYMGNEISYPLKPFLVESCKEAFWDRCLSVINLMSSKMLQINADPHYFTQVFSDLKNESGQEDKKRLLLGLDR

`NNC(=O)CSc1nnc(Cc2c(NCCC(=O)O)sc3c2CCCC3)n1NC(=O)c1ccccc1`: the IC50 (as a rule, the concentration at which inhibition is half-maximal) was determined as 455 nM. This counts as sub-micromolar.

Compound `CC(=O)Nc1sc2c(c1Cc1nnc(SCSc3nnc(Cc4c(NC(C)=O)sc5c4CCCC5)n3NC(=O)c3ccc(Cl)cc3)n1NC(=O)c1ccc(Cl)cc1)CCCC2` yielded an IC50 of 367 nM.

Regarding `O=C(Nc1sc2c(c1Cc1nnc(SCSc3nnc(Cc4c(NC(=O)c5ccccc5)sc5c4CCCC5)n3NC(=O)c3ccc(Cl)cc3)n1NC(=O)c1ccc(Cl)cc1)CCCC2)c1ccccc1`, inhibition was half-maximal at 627 nM (IC50).

For `O=C(O)CCNc1sc2c(c1Cc1nnc(SCSc3nnc(Cc4c(NCCC(=O)O)sc5c4CCCC5)n3NC(=O)c3ccc(Cl)cc3)n1NC(=O)c1ccc(Cl)cc1)CCCC2`, the IC50 came to 164 nM.

For the compound `Nn1c(CSc2nnc(Cc3c(NC(=O)c4ccccc4)sc4c3CCCC4)n2NC(=O)c2ccccc2)n[nH]c1=S`, the IC50 is 4590 nM.

For the compound `CC(=O)Nc1sc2c(c1Cc1nnc(SCC(=O)N/N=C/c3ccccc3)n1NC(=O)c1ccccc1)CCCC2`, the IC50 turned out to be 385 nM.

In turn, `O=C(CSc1nnc(Cc2c(NC(=O)c3ccccc3)sc3c2CCCC3)n1NC(=O)c1ccc(Cl)cc1)N/N=C/c1ccccc1` showed an IC50 of 217 nM.

For `Nn1c(S)nnc1CSc1nnc(Cc2c(NCCC(=O)O)sc3c2CCCC3)n1NC(=O)c1ccc(Cl)cc1`, the IC50 was determined as 5850 nM.

As to `CC(=O)NNC(=O)CSc1nnc(Cc2c(NC(C)=O)sc3c2CCCC3)n1NC(C)=O`, the IC50 was 327 nM.

Regarding `CC(=O)Nc1sc2c(c1Cc1nnc(SCC(=O)NNC(=O)c3ccccc3)n1NC(=O)c1ccc(Cl)cc1)CCCC2`, the IC50 stood at 525 nM. This IC50 is about 1.6-fold higher than that of the compound before.

For the compound `O=C(CCl)NNC(=O)CSc1nnc(Cc2c(NC(=O)c3ccccc3)sc3c2CCCC3)n1NC(=O)c1ccccc1`, 547 nM corresponded to half-maximal inhibition (IC50).

For the compound `CC(=O)Nc1sc2c(c1Cc1nnc(SCC#N)n1NC(=O)c1ccc(Cl)cc1)CCCC2`, half-maximal inhibition (IC50) was put at 415 nM.

For `CC(=O)Nc1sc2c(c1Cc1nnc(SCC(=O)NNC(=O)CCl)n1NC(C)=O)CCCC2`, half-maximal inhibition (IC50) required 474 nM.

Take `O=C(Nc1sc2c(c1Cc1nnc(S)n1NC(=O)c1ccc(Cl)cc1)CCCC2)c1ccccc1`: the midpoint of inhibition, the IC50, lay at 183 nM.

Consider `CC(=O)Nc1sc2c(c1Cc1nnc(SCC#N)n1NC(C)=O)CCCC2`, for which the IC50 is 458 nM.

Compound `O=C(O)CCNc1sc2c(c1Cc1n[nH]c(=S)n1NC(=O)c1ccccc1)CCCC2` had an IC50 of 674 nM. The IC50 values of the last two compounds are within 1.5-fold of each other.

As to `O=C(O)CCNc1sc2c(c1Cc1nnc(SCC(=O)N/N=C/c3ccccc3)n1NC(=O)c1ccc(Cl)cc1)CCCC2`, half-maximal inhibition (IC50) was put at 258 nM.

`CC(=O)Nc1sc2c(c1Cc1nnc(SCC(=O)NN)n1NC(C)=O)CCCC2` displayed an IC50 of 249 nM.

`CC(=O)Nc1sc2c(c1Cc1nnc(SCC(=O)NNC(=O)c3ccccc3)n1NC(=O)c1ccccc1)CCCC2` displayed an IC50 of 413 nM.

The compound `CC(=O)Nn1c(Cc2c(NC(=O)c3ccccc3)sc3c2CCCC3)nnc1SCC(=O)NNC(=O)CCl` registered an IC50 of 358 nM.

`O=C(O)CCNc1sc2c(c1Cc1nnc(SCC(=O)NNC(=O)c3ccccc3)n1NC(=O)c1ccc(Cl)cc1)CCCC2` came in with an IC50 of 271 nM.

`CC(=O)Nc1sc2c(c1Cc1nnc(SCc3n[nH]c(=S)n3N)n1NC(C)=O)CCCC2` had an IC50 of 5150 nM.

`CC(=O)Nc1sc2c(c1Cc1nnc(S)n1NC(C)=O)CCCC2`: the IC50 stood at 584 nM.

`COC(=O)CSc1nnc(Cc2c(NCCC(=O)O)sc3c2CCCC3)n1NC(C)=O` came in with an IC50 of 733 nM.

Consider `N#CCSc1nnc(Cc2c(NC(=O)c3ccccc3)sc3c2CCCC3)n1NC(=O)c1ccccc1`, for which the IC50 was 486 nM.

For the compound `CC(=O)NNC(=O)CSc1nnc(Cc2c(NC(C)=O)sc3c2CCCC3)n1NC(=O)c1ccccc1`, the IC50 worked out at 548 nM.

Compound `N#CCSc1nnc(Cc2c(NC(=O)c3ccccc3)sc3c2CCCC3)n1NC(=O)c1ccc(Cl)cc1` displayed an IC50 of 551 nM.

Regarding `CC(=O)Nc1sc2c(c1Cc1nnc(SCC(=O)N/N=C/c3ccccc3)n1NC(C)=O)CCCC2`, the IC50 turned out to be 453 nM.

As for `COC(=O)CSc1nnc(Cc2c(NCCC(=O)O)sc3c2CCCC3)n1NC(=O)c1ccc(Cl)cc1`, the IC50 stood at 541 nM. This IC50 and that of the compound before are within 1.5-fold of each other.

For the compound `O=C(O)CCNc1sc2c(c1Cc1nnc(SCC(=O)NNC(=O)CCl)n1NC(=O)c1ccc(Cl)cc1)CCCC2`, inhibition was half-maximal at 185 nM (IC50).
